Source: PubChem BioAssay AID1963851 (Molecular Pharmacology Branch, DTP, NCI, 2024)
pIC50: −log10 of the molar value. “And” between values parts separate entries of the source, which are not always exact repeats. Identical values can stand only once.

System: 188146-221-R-J1-PDC complex spheroid viability
Assay: Anticancer human tumor 188146-221-R-J1-PDC patient-derived colon adenocarcinoma cell line growth inhibition [POLQ]
Conditions: for viability, T/C: stronger effect = lower value
Description: Multicellular complex tumor spheroid response to Polymerase (POL) inhibitors (novobiocin, ART-558, RP6685) in combination with a variety of drugs and investigational agents in selected tumor cell lines
The POL inhibitors (novobiocin, ART-558, and RP6685) were evaluated both individually and in combination with standard of care and investigational anticancer small molecules within a complex spheroid model of solid tumors. . Complex spheroids include a stromal component modeled by human endothelial cells (HUVEC) and fibroblasts modeled by human mesenchymal stem cells (MSCs). The concentration ranges selected for each drug and investigational agent were based upon clinically achievable concentrations if the clinical Cmax of the agent was known.
Compounds. The drugs and investigational agents: novobiocin (NSC847541), ART-558 (NSC835418), RP-6685 (NSC848927), peposertib (NSC802822), ceralasertib (NSC780249), elimusertib (NSC800525), camonsertib (NSC841442), AZD-1390 (NSC803789), olaparib (NSC753686), talazoparib (NSC767125), rucaparib (NSC756644), sotorasib (NSC818433), MRTX-1133 (NSC836407), SN-38 (NSC673596), topotecan (NSC609699), epotoside (NSC141540), doxorubicin (NSC123127), gemcitabine (NSC613327), 5-fluorouracil (NSC19893), paclitaxel (NSC125973), vemurafenib (NSC761431), MSA-2 (NSC828583), SN-011 (NSC837082), adavosertib (NSC754352), prexasertib (NSC758257), carboplatin (NSC241240) and oxaliplatin (NSC266046), were obtained from the National Cancer Institute (NCI) Developmental Therapeutics Program Chemical Repository (21). The FDA-approved anticancer drug set is available from the Developmental Therapeutics Program at https://dtp.cancer.gov/organization/dscb/obtaining/. […] The stock solutions were prepared in dimethyl sulfoxide (DMSO, Sigma-Aldrich, St. Louis, MO, cat. D2650), except for the platinum compounds which were prepared in saline (Quality Biological, Gaithersburg, MD, cat. 114-055-101), at 800-fold the tested concentration and stored at -70 degrees C prior to their use. All drugs and investigational agents were tested over a range starting from a high concentration at or near the clinical Cmax and decreasing in half-log increments. If the clinical Cmax for an agent had not been determined, the highest concentration tested was 10 microM, except for SN-38, which was tested at a high concentration of 1 microM.
Cell Culture. All cells were maintained in an incubator at 37 degrees C and 5% CO2 with 95% humidity. The PDC lines were cultured according to standard operating procedures established by the NCI PDMR (https://pdmr.cancer.gov). Table 3 of the manuscript, lists the cell lines along with the number of the three cell types plated to form the mct-spheroids and media for tumor cell growth. After thawing, all PDC lines, except 997537-175-T-J1-PDC and 415267-285-R-J2-PDC, were cultured in Matrigel-coated flasks prepared with a working solution of 1X Ham's F-12 nutrient mix, without supplementation (Thermo Fisher Scientific, cat. 11765054), 100 U/mL penicillin-streptomycin (Thermo Fisher Scientific, cat. 15140122), and 2.5% Matrigel (Corning Inc., Corning, NY, cat. 354248) for the first three passages. The two PDC lines 997537-175-T-J1-PDC and 415267-285-R-J2-PDC were cultured on uncoated flasks. The 857933-349-R-J2-PDC line was cultured in 6C/Colon 1B media containing advanced DMEM/F-12 (Thermo Fisher Scientific, cat. 12634028), 10 mM HEPES (Thermo Fisher Scientific, cat. 15630080), 1X GlutaMAX supplement (Thermo Fisher Scientific, cat. 35050061), 0.1 mg/mL primocin (InvivoGen, San Diego, CA, cat. ant-pm-2), 10% defined fetal bovine serum, heat inactivated (HyClone Laboratories Inc., Logan, UT, cat. SH30070.03HI), 50% L-WRN conditioned media (ATCC, cat. CRL-3276), 1.25 mM N-Acetyl-L-cysteine (Sigma-Aldrich, cat. A9165), 10 mM nicotinamide (Sigma-Aldrich, cat. N0636), 1X B-27 supplement (Thermo Fisher Scientific, cat. 17504044), 1X N-2 supplement (Thermo Fisher Scientific, cat. […]

[1] = curve of first compound, second compound 0.0316 µM
[2] = curve of first compound, second compound 0.1 µM
[3] = curve of first compound, second compound 0.316 µM
[4] = curve of first compound, second compound 1 µM
[5] = curve of first compound, second compound 3.16 µM
[6] = curve of first compound, second compound 10 µM
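Further: spheroids exposed to compounds for seven days.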
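Wherever viability, T/C is given: 100% = DMSO vehicle control viability.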

SMILES: C=CCn1c(=O)c2cnc(Nc3ccc(N4CCN(C)CC4)cc3)nc2n1-c1cccc(C(C)(C)O)n1 + Nc1ccc(C#CCN(C(=O)Cc2ncc(C(F)(F)F)cc2C(F)(F)F)c2ccc(F)cc2)nn1
- pIC50 [1]: < 6.00
- pIC50 [2]: < 6.00
- pIC50 [3]: < 6.00
- pIC50 [4]: < 6.00
- pIC50 [5]: < 6.00
- pIC50 [6]: 6.10
- viability, T/C (second compound 0.0316 µM, first compound 0.00316 µM): 112%
- viability, T/C (second compound 0.0316 µM, first compound 0.01 µM): 100%
- viability, T/C (second compound 0.0316 µM, first compound 0.0316 µM): 98.6%
- viability, T/C (second compound 0.0316 µM, first compound 0.1 µM): 100%
- viability, T/C (second compound 0.0316 µM, first compound 0.316 µM): 102%
- viability, T/C (second compound 0.0316 µM, first compound 1 µM): 55.6%
- viability, T/C (second compound 0.1 µM, first compound 0.00316 µM): 111%
- viability, T/C (second compound 0.1 µM, first compound 0.01 µM): 97%
- viability, T/C (second compound 0.1 µM, first compound 0.0316 µM): 119%
- viability, T/C (second compound 0.1 µM, first compound 0.1 µM): 117%
- viability, T/C (second compound 0.1 µM, first compound 0.316 µM): 109%
- viability, T/C (second compound 0.1 µM, first compound 1 µM): 57.1%
- viability, T/C (second compound 0.316 µM, first compound 0.00316 µM): 115%
- viability, T/C (second compound 0.316 µM, first compound 0.01 µM): 104%
- viability, T/C (second compound 0.316 µM, first compound 0.0316 µM): 115%
- viability, T/C (second compound 0.316 µM, first compound 0.1 µM): 111%
- viability, T/C (second compound 0.316 µM, first compound 0.316 µM): 84.6%
- viability, T/C (second compound 0.316 µM, first compound 1 µM): 50.6%
- viability, T/C (second compound 1 µM, first compound 0.00316 µM): 119%
- viability, T/C (second compound 1 µM, first compound 0.01 µM): 106%
- viability, T/C (second compound 1 µM, first compound 0.0316 µM): 100%
- viability, T/C (second compound 1 µM, first compound 0.1 µM): 122%
- viability, T/C (second compound 1 µM, first compound 0.316 µM): 101%
- viability, T/C (second compound 1 µM, first compound 1 µM): 55.9%
- viability, T/C (second compound 3.16 µM, first compound 0.00316 µM): 107%
- viability, T/C (second compound 3.16 µM, first compound 0.01 µM): 110%
- viability, T/C (second compound 3.16 µM, first compound 0.0316 µM): 114%
- viability, T/C (second compound 3.16 µM, first compound 0.1 µM): 110%
- viability, T/C (second compound 3.16 µM, first compound 0.316 µM): 108%
- viability, T/C (second compound 3.16 µM, first compound 1 µM): 52.1%
- viability, T/C (second compound 10 µM, first compound 0.00316 µM): 114%
- viability, T/C (second compound 10 µM, first compound 0.01 µM): 114%
- viability, T/C (second compound 10 µM, first compound 0.0316 µM): 104%
- viability, T/C (second compound 10 µM, first compound 0.1 µM): 110%
- viability, T/C (second compound 10 µM, first compound 0.316 µM): 98.4%
- viability, T/C (second compound 10 µM, first compound 1 µM): 37.2%

SMILES: CC(=O)O[C@H]1C(=O)[C@@]2(C)[C@H]([C@H](OC(=O)c3ccccc3)[C@]3(O)C[C@H](OC(=O)[C@H](O)[C@@H](NC(=O)c4ccccc4)c4ccccc4)C(C)=C1C3(C)C)[C@]1(OC(C)=O)CO[C@@H]1C[C@@H]2O + Nc1ccc(C#CCN(C(=O)Cc2ncc(C(F)(F)F)cc2C(F)(F)F)c2ccc(F)cc2)nn1
- pIC50 [1]: 7.87
- pIC50 [2]: 7.90
- pIC50 [3]: 7.84
- pIC50 [4]: 7.98
- pIC50 [5]: 7.98
- pIC50 [6]: > 8.02
- viability, T/C (second compound 0.0316 µM, first compound 0.00949 µM): 63.4%
- viability, T/C (second compound 0.0316 µM, first compound 0.03 µM): 20.8%
- viability, T/C (second compound 0.0316 µM, first compound 0.0949 µM): 12.1%
- viability, T/C (second compound 0.0316 µM, first compound 0.3 µM): 12.3%
- viability, T/C (second compound 0.0316 µM, first compound 0.949 µM): 12.3%
- viability, T/C (second compound 0.0316 µM, first compound 3 µM): 11.4%
- viability, T/C (second compound 0.1 µM, first compound 0.00949 µM): 59.2%
- viability, T/C (second compound 0.1 µM, first compound 0.03 µM): 22.4%
- viability, T/C (second compound 0.1 µM, first compound 0.0949 µM): 12.4%
- viability, T/C (second compound 0.1 µM, first compound 0.3 µM): 11.6%
- viability, T/C (second compound 0.1 µM, first compound 0.949 µM): 13.2%
- viability, T/C (second compound 0.1 µM, first compound 3 µM): 17.6%
- viability, T/C (second compound 0.316 µM, first compound 0.00949 µM): 67.8%
- viability, T/C (second compound 0.316 µM, first compound 0.03 µM): 19.9%
- viability, T/C (second compound 0.316 µM, first compound 0.0949 µM): 11.4%
- viability, T/C (second compound 0.316 µM, first compound 0.3 µM): 13.2%
- viability, T/C (second compound 0.316 µM, first compound 0.949 µM): 12.4%
- viability, T/C (second compound 0.316 µM, first compound 3 µM): 12.9%
- viability, T/C (second compound 1 µM, first compound 0.00949 µM): 53.1%
- viability, T/C (second compound 1 µM, first compound 0.03 µM): 16%
- viability, T/C (second compound 1 µM, first compound 0.0949 µM): 14%
- viability, T/C (second compound 1 µM, first compound 0.3 µM): 10.8%
- viability, T/C (second compound 1 µM, first compound 0.949 µM): 12.7%
- viability, T/C (second compound 1 µM, first compound 3 µM): 13.6%
- viability, T/C (second compound 3.16 µM, first compound 0.00949 µM): 53.4%
- viability, T/C (second compound 3.16 µM, first compound 0.03 µM): 16.5%
- viability, T/C (second compound 3.16 µM, first compound 0.0949 µM): 14.4%
- viability, T/C (second compound 3.16 µM, first compound 0.3 µM): 12.5%
- viability, T/C (second compound 3.16 µM, first compound 0.949 µM): 12.9%
- viability, T/C (second compound 3.16 µM, first compound 3 µM): 14%
- viability, T/C (second compound 10 µM, first compound 0.00949 µM): 45.5%
- viability, T/C (second compound 10 µM, first compound 0.03 µM): 16.9%
- viability, T/C (second compound 10 µM, first compound 0.0949 µM): 15.8%
- viability, T/C (second compound 10 µM, first compound 0.3 µM): 13.3%
- viability, T/C (second compound 10 µM, first compound 0.949 µM): 14.4%
- viability, T/C (second compound 10 µM, first compound 3 µM): 17.6%

SMILES: CCc1c2c(nc3ccc(O)cc13)-c1cc3c(c(=O)n1C2)COC(=O)[C@]3(O)CC
- viability, T/C (compound 0.00316 µM): 98.1% and 104% and 88.5%
- viability, T/C (compound 0.01 µM): 73.8% and 73.1% and 74.3%
- viability, T/C (compound 0.0316 µM): 35.4% and 45.1% and 29.7%
- viability, T/C (compound 0.1 µM): 18% and 23.1% and 19.6%
- viability, T/C (compound 0.316 µM): 12% and 12.2% and 13.3%
- viability, T/C (compound 1 µM): 6.11% and 8.93% and 6.3%
- pIC50 (curve of compound): 7.68 and 7.60 and 7.72
